We go through 22 compounds from patent publication US9133158B2, “Bicyclic dihydroisoquinoline-1-one derivatives” (Hoffmann-La Roche Inc., priority 2011, dated 2015).

In one test the target is T1, human CYP11B2 (Homo sapiens, UniProt P19099).
T1 construct: expressed in transfected cells
T1 sequence (P19099 25-503): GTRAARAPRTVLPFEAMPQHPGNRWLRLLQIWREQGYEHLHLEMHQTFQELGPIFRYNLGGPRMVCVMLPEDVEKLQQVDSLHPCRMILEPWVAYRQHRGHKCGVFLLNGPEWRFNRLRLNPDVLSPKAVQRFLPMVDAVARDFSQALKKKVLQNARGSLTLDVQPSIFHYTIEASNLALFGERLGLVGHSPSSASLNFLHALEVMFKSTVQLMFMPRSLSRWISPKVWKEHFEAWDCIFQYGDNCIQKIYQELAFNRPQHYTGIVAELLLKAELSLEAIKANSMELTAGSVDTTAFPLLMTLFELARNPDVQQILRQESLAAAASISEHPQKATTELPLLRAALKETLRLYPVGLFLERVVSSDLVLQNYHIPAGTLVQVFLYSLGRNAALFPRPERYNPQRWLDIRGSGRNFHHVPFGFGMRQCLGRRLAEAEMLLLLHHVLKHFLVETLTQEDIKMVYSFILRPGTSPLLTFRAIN
The experiment in a line: G-402 cellular enzyme assay, human CYP11B2 (aldosterone release, HTRF). Conditions: G-402 cells, 1 μM Deoxycorticosterone. The format is cell-based. The source says:
(§1) Herein we identified the use of the G-402 cell line as a host cell to ectopically express (transiently or stably) enzymes of the CYP11 family. Specifically we developed stable G-402 cells expressing ectopically human CYP11B1, human CYP11B2, human CYP11A1, cynmolgus CYP11B1 or cynomolgus CYP11B2 enzyme activity. Importantly the identified cell line G-402 expresses co-factors (adrenodoxin and adrenodoxin reductase) important for the activity of the CYP11 family and no relevant enzyme activity of the CYP11 family (in comparison to H295R cells) was detected in these cells. Therefore the G-402 cell line is uniquely suited as a host cell for the ectopic expression of enzymes from the CYP11 family.
(§2) G-402 cells can be obtained from ATCC(CRL-1440) and were originally derived from a renal leiomyoblastoma.
(§3) The expression plasmids contain the ORF for either human/cyno CYP11B1 or CYP11B2 under the control of a suitable promoter (CMV-promoter) and a suitable resistance marker (neomycin). Using standard techniques the expression plasmid is transfected into G-402 cells and these cells are then selected for expressing the given resistance markers. Individual cell-clones are then selected and assessed for displaying the desired enzymatic activity using 11-Deoxycorticosterone (Cyp11B2) or 11-Deoxycortisol (Cyp11B1) as a substrate.
(§4) G-402 cells expressing CYP11 constructs were established as described above and maintained in McCoy's 5a Medium Modified, ATCC Catalog No. 30-2007 containing 10% FCS and 400 μg/ml G418 (Geneticin) at 37° C. under an atmosphere of 5% CO2/95% air.
(§5) Cellular enzyme assays were performed in DMEM/F12 medium containing 2.5% charcoal treated FCS and appropriate concentration of substrate (0.3-10 uM 11-Deoxycorticosterone, 11-Deoxycortisol or Corticosterone). For assaying enzymatic activity, cells were plated onto 96 well plates and incubated for 16 h. An aliquot of the supernatant is then transferred and analyzed for the concentration of the expected product (Aldosterone for CYP11B2; Cortisol for CYP11B1). The concentrations of these steroids can be determined using HTRF assays from CisBio analyzing either Aldosterone or Cortisol.
(§6) Inhibition of the release of produced steroids can be used as a measure of the respective enzyme inhibition by test compounds added during the cellular enzyme assay. The dose dependent inhibition of enzymatic activity by a compound is calculated by means of plotting added inhibitor concentrations (x-axes) vs. measured steroid/product level (y-axes). The inhibition is then calculated by fitting the following 4-parameter sigmoidal function (Morgan-Mercer-Flodin (MMF) model) to the raw data points using the least squares method:
(§7) [formula] wherein, A is the maximum y value, B is the EC50 factor determined using XLFit, C is the minimum y value and D is the slope value.
(§8) EC50 values for compounds claimed herein were tested with the G402-based assay system described. Cyp11B2 enzyme activity was tested in presence of 1 μM Deoxycorticosterone and variable amounts of inhibitors; Cyp11B1 enzyme activity was tested in presence of 1 μM Deoxycortisol and variable amounts of inhibitors.

Another test deals with T2, human CYP11B1 (Homo sapiens, UniProt P15538).
T2 construct: expressed in transfected cells
T2 sequence (P15538 25-503): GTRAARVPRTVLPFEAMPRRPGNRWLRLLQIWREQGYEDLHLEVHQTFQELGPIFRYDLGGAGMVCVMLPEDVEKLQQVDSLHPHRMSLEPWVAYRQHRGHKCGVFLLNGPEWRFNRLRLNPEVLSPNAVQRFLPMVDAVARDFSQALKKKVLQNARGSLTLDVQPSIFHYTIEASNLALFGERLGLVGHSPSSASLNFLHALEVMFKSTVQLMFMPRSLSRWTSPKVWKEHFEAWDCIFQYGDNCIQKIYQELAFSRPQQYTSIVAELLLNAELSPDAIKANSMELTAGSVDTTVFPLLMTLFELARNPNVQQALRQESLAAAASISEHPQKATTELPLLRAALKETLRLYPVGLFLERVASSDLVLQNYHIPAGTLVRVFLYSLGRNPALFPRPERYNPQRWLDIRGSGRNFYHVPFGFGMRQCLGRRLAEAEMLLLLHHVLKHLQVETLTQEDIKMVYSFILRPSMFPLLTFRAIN
The experiment in a line: G-402 cellular enzyme assay, human CYP11B1 (cortisol release, HTRF). The format is cell-based. As to conditions: G-402 cells, 1 μM Deoxycortisol.
Text: as §1, §2, §3, §4, §5, §6, §7, §8

pEC50: −log10 of the molar value.

As for `CC(=O)NCc1cncc(N2C(=O)c3ccc(Cl)cc3C2(C)C)c1` [Example 400, N-[5-(6-Chloro-1,1-dimethyl-3-oxo-1,3-dihydro-isoindol-2-yl)-pyridin-3-ylmethyl]-acetamide], the negative logarithm of the EC50 (pEC50) at human CYP11B2 is 7.23; at human CYP11B1, 5.56.

Take `Cn1cc(-c2cncc(N3CCc4cc(Cl)ccc4C3=O)c2)cn1` [Example 239, 6-Chloro-2-[5-(1-methyl-1H-pyrazol-4-yl)-pyridin-3-yl]-3,4-dihydro-2H-isoquinolin-1-one]: the pEC50 at human CYP11B2 is 7.98; on human CYP11B1, 7.05.

Consider `O=C1c2ccc(Cl)cc2CCN1c1cncc(Cn2cc3ccccc3n2)c1` [Example 183, 6-Chloro-2-(5-indazol-2-ylmethyl-pyridin-3-yl)-3,4-dihydro-2H-isoquinolin-1-one], for which the results for the pEC50 on human CYP11B2 and on human CYP11B1 were 7.52 and 6.41, respectively.

Take `COc1cncc(N2CCc3cc(Cl)c(F)cc3C2=O)c1` [Example 100, 6-Chloro-7-fluoro-2-(5-methoxy-pyridin-3-yl)-3,4-dihydro-2H-isoquinolin-1-one]: the pEC50 was 7.76 on human CYP11B2 and 6.31 at human CYP11B1.

On to `Cc1cnn(C)c1-c1cncc(N2CCc3cc(Cl)ccc3C2=O)c1` [Example 245, 6-Chloro-2-[5-(2,4-dimethyl-2H-pyrazol-3-yl)-pyridin-3-yl]-3,4-dihydro-2H-isoquinolin 1-one], for which the results for the pEC50 on human CYP11B2 and at human CYP11B1 were 8.96 and 7.59, respectively.

For `CC1Cc2cccc(Cl)c2C(=O)N1c1cccnc1` (centres unmarked) [Example 93, 8-Chloro-3-methyl-2-pyridin-3-yl-3,4-dihydro-2H-isoquinolin-1-one], the pEC50 at human CYP11B2 is 6.11; on human CYP11B1, 4.85.

Consider `CCC1c2cc(Cl)ccc2C(=O)N1c1cncc(-c2ccnn2C)c1` (single isomer, unassigned) [Example 429, (S or R)-5-Chloro-3-ethyl-2-[5-(2-methyl-2H-pyrazol-3-yl)-pyridin-3-yl]-2,3-dihydro-isoindol-1-one], for which the values for the pEC50 at human CYP11B2 and on human CYP11B1 were 8.37 and 7.24, respectively.

In the case of `CC(O)c1ccncc1N1CCc2cc(Cl)ccc2C1=O` (centres unmarked) [Example 55, 6-Chloro-2-[4-(1-hydroxy-ethyl)-pyridin-3-yl]-3,4-dihydro-2H-isoquinolin-1-one], the pEC50 on human CYP11B2 was 6.46; on human CYP11B1, 5.01.

On to `CC1(C)c2cc(Cl)ccc2C(=O)N1c1cncc(F)c1` [Example 129, 5-Chloro-2-(5-fluoro-pyridin-3-yl)-3,3-dimethyl-2,3-dihydro-isoindol-1-one], for which the pEC50 on human CYP11B2 is 7.20; on human CYP11B1, 5.50.

In the case of `O=C1c2ccc(Cl)cc2CCN1c1cncc(CNC2COC2)c1` [Example 164, 6-Chloro-2-[5-(oxetan-3-ylaminomethyl)-pyridin-3-yl]-3,4-dihydro-2H-isoquinolin-1-one], the pEC50 on human CYP11B2 is 6.85; at human CYP11B1, 6.06.

Consider `O=C1c2ccc(Cl)cc2CCN1c1cncc(Cc2ccc(Cl)c(Cl)c2)c1` [Example 216, 6-Chloro-2-[5-(3,4-dichloro-benzyl)-pyridin-3-yl]-3,4-dihydro-2H-isoquinolin-1-one], for which the pEC50 at human CYP11B2 is 7.42; at human CYP11B1, 6.44.

As for `CC1(C)c2cc(Cl)ccc2C(=O)N1c1cncc(CO)c1` [Example 133, 5-Chloro-2-(5-hydroxymethyl-pyridin-3-yl)-3,3-dimethyl-2,3-dihydro-isoindol-1-one], the pEC50 was 7.01 at human CYP11B2 and 5.86 on human CYP11B1.

Turning to `C[C@H](O)c1cncc(N2CCc3cc(Cl)ccc3C2=O)c1` [Example 15, 6-Chloro-2-[5-((S)-1-hydroxy-ethyl)-pyridin-3-yl]-3,4-dihydro-2H-isoquinolin-1-one], the pEC50 is 7.17 on human CYP11B2 and 6.04 on human CYP11B1.

Consider `CCC1c2cc(Cl)ccc2C(=O)N1c1cnccc1Cl` (centres unmarked) [Example 284, 5-Chloro-2-(4-chloro-pyridin-3-yl)-3-ethyl-2,3-dihydro-isoindol-1-one], for which the results for the negative-log EC50 (pEC50) on human CYP11B2 and on human CYP11B1 were 7.69 and 6.60, respectively.

Take `CC1(C)c2cc(Cl)ccc2C(=O)N1c1cncc(CNC(=O)c2cccnc2Cl)c1` [Example 433, 2-Chloro-N-[5-(6-chloro-1,1-dimethyl-3-oxo-1,3-dihydro-isoindol-2-yl)-pyridin-3-ylmethyl]-nicotinamide]: the pEC50 is 7.84 at human CYP11B2 and 5.88 at human CYP11B1.

Turning to `Cc1cn[nH]c1-c1cncc(N2CCc3cc(Cl)ccc3C2=O)c1` [Example 420, 6-Chloro-2-[5-(4-methyl-2H-pyrazol-3-yl)-pyridin-3-yl]-3,4-dihydro-2H-isoquinolin-1-one], the pEC50 at human CYP11B2 was 7.56; on human CYP11B1 it was 6.55.

Regarding `O=C1c2ccc(Cl)cc2CCN1c1cncc(COc2ccccc2F)c1` [Example 199, 6-Chloro-2-[5-(2-fluoro-phenoxymethyl)-pyridin-3-yl]-3,4-dihydro-2H-isoquinolin-1-one], the pEC50 was 6.98 on human CYP11B2 and 6.55 on human CYP11B1.

Take `CC(O)(c1cncc(N2CCc3cc(Cl)ccc3C2=O)c1)c1ccc(F)c(F)c1` (centres unmarked) [Example 36, 6-Chloro-2-{5-[1-(3,4-difluoro-phenyl)-1-hydroxy-ethyl]-pyridin-3-yl}-3,4-dihydro-2H-isoquinolin-1-one]: the negative logarithm of the EC50 (pEC50) at human CYP11B2 is 7.85; on human CYP11B1 it was 6.73.

Turning to `CCC1c2cc(Cl)ccc2C(=O)N1c1cncc(F)c1` (single isomer, unassigned) [Example 309, (R or S)-5-Chloro-3-ethyl-2-(5-fluoro-pyridin-3-yl)-2,3-dihydro-isoindol-1-one], the values for the negative-log EC50 (pEC50) on human CYP11B2 and at human CYP11B1 were 7.80 and 5.61, respectively.

Regarding `CC1(C)c2cc(Cl)ccc2C(=O)N1c1cncc(OC2CCN(S(C)(=O)=O)C2)c1` (centres unmarked) [Example 445, 5-Chloro-2-[5-(1-methanesulfonyl-pyrrolidin-3-yloxy) -pyridin-3-yl]-3,3-dimethyl-2,3-dihydro-isoindol-1-one], the pEC50 on human CYP11B2 is 8.13; on human CYP11B1, 6.04.

As to `CC(=O)NC1CCCc2c1cncc2N1Cc2cc(Cl)ccc2C1=O` (single isomer, unassigned) [Example 323, N-[(R or S)-4-(5-Chloro-1-oxo-1,3-dihydro-isoindol-2-yl)-5,6,7,8-tetrahydro-isoquinolin-8-yl]-acetamide], the pEC50 at human CYP11B2 was 7.35; at human CYP11B1, 5.63.

As to `CC1(C)c2cc(F)ccc2C(=O)N1c1cncc(CNS(C)(=O)=O)c1` [Example 403, N-[5-(6-Fluoro-1,1-dimethyl-3-oxo-1,3-dihydro-isoindol-2-yl)-pyridin-3-ylmethyl]-methane-sulfonamide], the pEC50 was 7.50 at human CYP11B2 and 5.71 at human CYP11B1.
